Experiments:
EGFR = EGFR (Homo sapiens, UniProt P00533); assay: Z'-LYTE kinase inhibition, EGFR; details: EGFR relative to Yes
Fyn = Fyn (Homo sapiens, UniProt P06241); assay: Z'-LYTE kinase inhibition, Fyn
pdgfr-b = pdgfr-b (Homo sapiens, UniProt P09619); assay: Z'-LYTE kinase inhibition, pdgfr-b
Kit = Kit (Homo sapiens, UniProt P10721); assay: Z'-LYTE kinase inhibition, Kit
Lck = Lck (Homo sapiens, UniProt P06239); assay: Z'-LYTE kinase inhibition, Lck
Hck = Hck (Homo sapiens, UniProt P08631); assay: Z'-LYTE kinase inhibition, Hck
Lyn = Lyn (Homo sapiens, UniProt P07948); assay: Z'-LYTE kinase inhibition, Lyn
Ret kinase = Ret kinase (Homo sapiens, UniProt P07949); assay: Z'-LYTE kinase inhibition, Ret
Sequence of Ret kinase (P07949 29-1114): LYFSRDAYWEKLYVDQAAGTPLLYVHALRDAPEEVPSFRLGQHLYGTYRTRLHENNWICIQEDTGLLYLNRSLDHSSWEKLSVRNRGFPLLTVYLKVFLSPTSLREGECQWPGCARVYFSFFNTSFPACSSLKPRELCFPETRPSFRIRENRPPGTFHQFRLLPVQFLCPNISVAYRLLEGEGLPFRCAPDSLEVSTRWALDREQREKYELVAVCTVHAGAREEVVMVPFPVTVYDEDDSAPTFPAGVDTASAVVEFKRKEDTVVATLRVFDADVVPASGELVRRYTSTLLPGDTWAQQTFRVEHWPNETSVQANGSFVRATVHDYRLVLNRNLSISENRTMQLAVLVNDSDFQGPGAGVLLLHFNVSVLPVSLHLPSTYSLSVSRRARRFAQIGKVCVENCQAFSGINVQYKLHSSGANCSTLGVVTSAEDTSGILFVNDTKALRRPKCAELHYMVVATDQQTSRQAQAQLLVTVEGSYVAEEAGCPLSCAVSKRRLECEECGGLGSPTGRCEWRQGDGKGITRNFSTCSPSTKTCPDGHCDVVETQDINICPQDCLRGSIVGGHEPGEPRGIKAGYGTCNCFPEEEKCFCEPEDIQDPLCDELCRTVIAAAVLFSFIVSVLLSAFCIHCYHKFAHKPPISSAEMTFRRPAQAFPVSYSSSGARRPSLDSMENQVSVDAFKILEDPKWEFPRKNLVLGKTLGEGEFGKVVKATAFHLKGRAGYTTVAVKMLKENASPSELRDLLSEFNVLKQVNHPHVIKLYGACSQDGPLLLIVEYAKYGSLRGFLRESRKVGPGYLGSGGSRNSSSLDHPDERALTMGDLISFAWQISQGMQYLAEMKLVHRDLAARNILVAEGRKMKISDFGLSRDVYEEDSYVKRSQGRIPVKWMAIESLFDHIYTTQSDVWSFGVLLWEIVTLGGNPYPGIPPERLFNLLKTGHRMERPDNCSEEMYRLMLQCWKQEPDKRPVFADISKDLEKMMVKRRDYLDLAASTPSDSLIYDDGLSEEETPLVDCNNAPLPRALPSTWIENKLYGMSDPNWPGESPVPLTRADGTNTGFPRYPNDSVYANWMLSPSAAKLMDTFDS

Abl = Abl (Homo sapiens, UniProt P00519); assay: Z'-LYTE kinase inhibition, Abl
Sequence of Abl (P00519 whole entry): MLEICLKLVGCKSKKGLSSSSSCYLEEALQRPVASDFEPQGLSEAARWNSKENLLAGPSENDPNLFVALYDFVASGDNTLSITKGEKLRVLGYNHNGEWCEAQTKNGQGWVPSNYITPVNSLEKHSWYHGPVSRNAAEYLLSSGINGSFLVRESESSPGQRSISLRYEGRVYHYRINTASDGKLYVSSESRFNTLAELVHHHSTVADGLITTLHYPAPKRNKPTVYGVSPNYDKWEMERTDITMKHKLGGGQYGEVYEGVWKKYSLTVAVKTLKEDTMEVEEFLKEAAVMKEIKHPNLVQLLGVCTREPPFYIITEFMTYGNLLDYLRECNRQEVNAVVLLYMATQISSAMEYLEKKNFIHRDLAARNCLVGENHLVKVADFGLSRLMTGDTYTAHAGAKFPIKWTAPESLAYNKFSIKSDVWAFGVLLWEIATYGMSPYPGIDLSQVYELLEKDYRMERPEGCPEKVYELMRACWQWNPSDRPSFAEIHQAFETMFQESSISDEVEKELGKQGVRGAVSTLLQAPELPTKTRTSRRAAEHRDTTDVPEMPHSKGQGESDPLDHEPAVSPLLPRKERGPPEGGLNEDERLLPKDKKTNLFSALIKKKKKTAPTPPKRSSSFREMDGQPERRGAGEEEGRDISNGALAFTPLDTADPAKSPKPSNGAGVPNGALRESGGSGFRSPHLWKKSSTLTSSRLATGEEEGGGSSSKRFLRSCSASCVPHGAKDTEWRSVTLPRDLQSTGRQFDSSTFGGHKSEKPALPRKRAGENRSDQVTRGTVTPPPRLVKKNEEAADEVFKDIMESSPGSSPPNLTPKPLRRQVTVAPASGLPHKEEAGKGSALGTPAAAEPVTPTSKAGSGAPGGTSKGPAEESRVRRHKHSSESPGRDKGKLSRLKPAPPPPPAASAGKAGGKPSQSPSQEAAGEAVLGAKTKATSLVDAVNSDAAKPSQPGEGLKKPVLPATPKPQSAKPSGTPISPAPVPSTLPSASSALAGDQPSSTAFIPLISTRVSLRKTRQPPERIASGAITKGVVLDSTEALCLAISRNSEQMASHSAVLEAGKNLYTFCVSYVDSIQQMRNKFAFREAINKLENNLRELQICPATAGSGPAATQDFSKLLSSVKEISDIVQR

Src kinase = Src kinase (Homo sapiens, UniProt P12931); assay: Z'-LYTE kinase inhibition, Src; details: Src relative to Yes
Yes = Yes (Homo sapiens, UniProt P07947); assay: Z'-LYTE kinase inhibition, Yes
Sequence of Yes (P07947 whole entry): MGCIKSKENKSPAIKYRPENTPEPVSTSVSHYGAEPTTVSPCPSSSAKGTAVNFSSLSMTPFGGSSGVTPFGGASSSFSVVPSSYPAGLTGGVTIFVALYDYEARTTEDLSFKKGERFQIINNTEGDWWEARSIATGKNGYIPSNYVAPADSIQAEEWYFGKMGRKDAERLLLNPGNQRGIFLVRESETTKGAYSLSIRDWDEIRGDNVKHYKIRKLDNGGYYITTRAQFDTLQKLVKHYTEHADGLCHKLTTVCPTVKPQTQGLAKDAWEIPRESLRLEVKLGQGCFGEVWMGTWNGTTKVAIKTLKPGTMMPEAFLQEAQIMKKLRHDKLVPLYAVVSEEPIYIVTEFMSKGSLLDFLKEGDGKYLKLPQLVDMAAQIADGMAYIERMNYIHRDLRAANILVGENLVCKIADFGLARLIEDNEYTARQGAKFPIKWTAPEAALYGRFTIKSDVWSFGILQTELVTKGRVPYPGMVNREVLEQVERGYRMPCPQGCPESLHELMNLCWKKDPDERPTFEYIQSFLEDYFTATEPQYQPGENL

Alk = Alk (Homo sapiens, UniProt Q9UM73); assay: Z'-LYTE kinase inhibition, Alk
[1] = test system: panel of tyrosine kinases; assay: Kinase inhibitor profiling across a panel of tyrosine kinases, selectivity score; assay type: biochemical
Description: To analyze each analog's selectivity across the panel, selectivity scores were used (Davis et al., Nat. Biotechnol. 2011, 29, 1046-51), which are simply the number of kinases inhibited above a certain threshold divided by the number of kinases evaluated. […] For example at 1000 nM 2e-(R) yielded an S(40%) of 0.11 while 2e-(S) gave an S(40%) of 0.16. […] Differences in selectivity between 2e-(R) and 2e-(S) at 5000 nM (4.5 times the IC50 of 2e-(S) toward Src) and for 5 at 1000 nM (6.25 times the IC50 of 5 toward Src) can be viewed graphically across tyrosine kinases (FIG. 3). Importantly, similar trends were also observed across each of the atropisomeric series tested.
All samples were sent out to Life Technologies to obtain kinase inhibition data. A brief description of the assays and analyses are included below.
Assay Theory (SelectScreen® Kinase Profiling Services (Life Technologies, Madison, Wis. USA). The Z′-LYTE® biochemical assay employs a fluorescence-based, coupled-enzyme format and is based on the differential sensitivity of phosphorylated and non-phosphorylated peptides to proteolytic cleavage. The peptide substrate is labeled with two fluorophores—one at each end—that make up a FRET pair.
In the primary reaction, the kinase transfers the gamma-phosphate of ATP to a single tyrosine, serine or threonine residue in a synthetic FRET-peptide. In the secondary reaction, a site-specific protease recognizes and cleaves non-phosphorylated FRET-peptides. Phosphorylation of FRET-peptides suppresses cleavage by the Development Reagent. Cleavage disrupts FRET between the donor (i.e., coumarin) and acceptor (i.e., fluorescein) fluorophores on the FRET-peptide, whereas uncleaved, phosphorylated FRET-peptides maintain FRET. A ratiometric method, which calculates the ratio (the Emission Ratio) of donor emission to acceptor emission after excitation of the donor fluorophore at 400 nm, is used to quantitate reaction progress, as shown in the equation below: […]
A significant benefit of this ratiometric method for quantitating reaction progress is the elimination of well-to-well variations in FRET-peptide concentration and signal intensities. […] Both cleaved and uncleaved FRET-peptides contribute to the fluorescence signals and therefore to the Emission Ratio. The extent of phosphorylation of the FRET-peptide can be calculated from the Emission Ratio. The Emission Ratio will remain low 1f the FRET-peptide is phosphorylated (i.e., no kinase inhibition) and will be high if the FRET-peptide is non-phosphorylated (i.e., kinase inhibition).
Both cleaved and uncleaved FRET-peptides contribute to the fluorescence signals and therefore to the Emission Ratio. The extent of phosphorylation of the FRET-peptide can be calculated from the Emission Ratio. The Emission Ratio will remain low if the FRET-peptide is phosphorylated (i.e., no kinase inhibition) and will be high if the FRET-peptide is non-phosphorylated (i.e., kinase inhibition).

pdgfr-a = pdgfr-a (Homo sapiens, UniProt P16234); assay: Z'-LYTE kinase inhibition, pdgfr-a
CSK = CSK (Homo sapiens, UniProt P41240); assay: Z'-LYTE kinase inhibition, CSK
BTK = BTK (Homo sapiens, UniProt Q06187); assay: Z'-LYTE kinase inhibition, BTK
Blk = Blk (Homo sapiens, UniProt P51451); assay: Z'-LYTE kinase inhibition, Blk
Sequence of Blk (P51451 whole entry): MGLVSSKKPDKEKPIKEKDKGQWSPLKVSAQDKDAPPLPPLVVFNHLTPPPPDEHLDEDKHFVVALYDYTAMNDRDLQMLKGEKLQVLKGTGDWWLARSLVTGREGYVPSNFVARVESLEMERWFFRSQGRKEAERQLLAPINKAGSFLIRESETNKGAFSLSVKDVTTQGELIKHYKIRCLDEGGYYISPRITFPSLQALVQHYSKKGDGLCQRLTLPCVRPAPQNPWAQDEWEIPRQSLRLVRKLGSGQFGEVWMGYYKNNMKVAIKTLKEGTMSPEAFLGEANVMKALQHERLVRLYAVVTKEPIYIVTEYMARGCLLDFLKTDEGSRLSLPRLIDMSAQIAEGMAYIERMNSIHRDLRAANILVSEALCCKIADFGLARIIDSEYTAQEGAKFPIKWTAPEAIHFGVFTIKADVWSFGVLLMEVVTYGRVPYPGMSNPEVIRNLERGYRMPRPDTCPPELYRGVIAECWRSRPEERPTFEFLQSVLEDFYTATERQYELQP

Fgr = Fgr (Homo sapiens, UniProt P09769); assay: Z'-LYTE kinase inhibition, Fgr

Sequence of Lck (P06239 whole entry): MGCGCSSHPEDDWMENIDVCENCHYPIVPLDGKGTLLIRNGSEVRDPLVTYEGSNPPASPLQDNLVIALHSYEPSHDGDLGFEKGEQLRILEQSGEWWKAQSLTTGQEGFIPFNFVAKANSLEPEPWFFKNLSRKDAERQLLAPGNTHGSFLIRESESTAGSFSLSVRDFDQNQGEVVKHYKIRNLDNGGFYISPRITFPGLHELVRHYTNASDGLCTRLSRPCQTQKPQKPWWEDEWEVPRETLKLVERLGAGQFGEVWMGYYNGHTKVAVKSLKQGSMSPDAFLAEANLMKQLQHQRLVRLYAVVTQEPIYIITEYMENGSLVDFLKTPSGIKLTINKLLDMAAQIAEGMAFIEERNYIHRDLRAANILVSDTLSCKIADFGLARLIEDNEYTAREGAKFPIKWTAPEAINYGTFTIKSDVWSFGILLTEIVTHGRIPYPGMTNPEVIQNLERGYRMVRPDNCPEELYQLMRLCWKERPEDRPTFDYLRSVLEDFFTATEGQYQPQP
Sequence of pdgfr-b (P09619 33-1106): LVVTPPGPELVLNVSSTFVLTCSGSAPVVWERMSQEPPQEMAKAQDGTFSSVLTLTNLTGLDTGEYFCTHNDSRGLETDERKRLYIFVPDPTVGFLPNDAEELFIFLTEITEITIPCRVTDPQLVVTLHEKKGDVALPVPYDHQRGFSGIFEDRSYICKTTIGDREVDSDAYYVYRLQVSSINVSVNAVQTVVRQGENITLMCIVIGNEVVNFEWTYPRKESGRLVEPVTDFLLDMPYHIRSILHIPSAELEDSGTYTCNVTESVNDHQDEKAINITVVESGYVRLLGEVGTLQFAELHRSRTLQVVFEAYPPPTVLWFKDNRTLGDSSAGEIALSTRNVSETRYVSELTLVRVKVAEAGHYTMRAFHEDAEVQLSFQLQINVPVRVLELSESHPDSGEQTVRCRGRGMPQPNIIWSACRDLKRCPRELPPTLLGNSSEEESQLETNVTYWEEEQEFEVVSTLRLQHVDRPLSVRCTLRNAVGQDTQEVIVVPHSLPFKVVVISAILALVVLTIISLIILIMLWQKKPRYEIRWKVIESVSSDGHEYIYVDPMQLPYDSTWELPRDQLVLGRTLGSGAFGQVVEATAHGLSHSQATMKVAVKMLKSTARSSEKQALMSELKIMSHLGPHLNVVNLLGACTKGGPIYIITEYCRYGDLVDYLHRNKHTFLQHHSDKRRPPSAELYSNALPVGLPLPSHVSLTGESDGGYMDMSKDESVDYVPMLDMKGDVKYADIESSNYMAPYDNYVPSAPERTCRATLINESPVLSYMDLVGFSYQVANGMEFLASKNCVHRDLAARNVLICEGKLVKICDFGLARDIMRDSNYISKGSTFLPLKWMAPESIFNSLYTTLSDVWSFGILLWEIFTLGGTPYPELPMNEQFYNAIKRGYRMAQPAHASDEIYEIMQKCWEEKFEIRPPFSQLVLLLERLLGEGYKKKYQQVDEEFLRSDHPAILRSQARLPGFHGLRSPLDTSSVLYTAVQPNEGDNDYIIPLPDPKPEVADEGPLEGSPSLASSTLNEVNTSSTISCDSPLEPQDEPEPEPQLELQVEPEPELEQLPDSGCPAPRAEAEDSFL

IC50 of compound Kinase/IC50 of compound Yes (EGFR): >10.0
S/R (5000 nM): % inhibition 2e-(S) / % inhibition 2e-(R) (Fyn): 1.27
S/R (5000 nM): % inhibition 2e-(S) / % inhibition 2e-(R) (pdgfr-b): 1.23
S/R (5000 nM): % inhibition 2e-(S) / % inhibition 2e-(R) (Kit): 1.38
S/R (5000 nM): % inhibition 2e-(S) / % inhibition 2e-(R) (Lck): 1.05
S/R (5000 nM): % inhibition 2e-(S) / % inhibition 2e-(R) (Hck): 1.25
S/R (5000 nM): % inhibition 2e-(S) / % inhibition 2e-(R) (Lyn): 1.31
IC50 of compound Kinase/IC50 of compound Yes (Ret kinase; Ret relative to Yes): 10.53
augmentation/increase of 5's inherent selectivity (Ret kinase; Ret versus Abl and Src, listed as 2e-(5)): ~8 fold
S/R (5000 nM): % inhibition 2e-(S) / % inhibition 2e-(R) (Ret kinase; Ret, 5000 nM): 0.44
IC50 of compound Kinase/IC50 of compound Yes (Abl; Abl relative to Yes): 1.96
S/R (5000 nM): % inhibition 2e-(S) / % inhibition 2e-(R) (Abl; Abl, 5000 nM): 2.57
IC50 of compound Kinase/IC50 of compound Yes (Src kinase): 1.64
IC50 of compound Kinase/IC50 of compound Yes (Yes; Yes relative to Yes): 1
S/R (5000 nM): % inhibition 2e-(S) / % inhibition 2e-(R) (Yes; Yes, 5000 nM): 0.97
S/R (5000 nM): % inhibition 2e-(S) / % inhibition 2e-(R) (Alk): 0.38
S(40%): number of kinases inhibited greater than 40% divided by number of kinases tested (including Src) ([1]; 1000 nM): 0.16
S(40%): number of kinases inhibited greater than 40% divided by number of kinases tested (including Src) ([1]; 5000 nM): 0.61
Inhibited % (n/18) of tyrosine kinases ([1]; share of the 18 tyrosine kinases inhibited, concentration not printed in Table 3): (S): Inhibited 16% (3/18)
S/R (5000 nM): % inhibition 2e-(S) / % inhibition 2e-(R) (pdgfr-a): 1.63
S/R (5000 nM): % inhibition 2e-(S) / % inhibition 2e-(R) (CSK): 1.28
S/R (5000 nM): % inhibition 2e-(S) / % inhibition 2e-(R) (BTK): 1.86
S/R (5000 nM): % inhibition 2e-(S) / % inhibition 2e-(R) (Blk): 1.46
S/R (5000 nM): % inhibition 2e-(S) / % inhibition 2e-(R) (Fgr): 1.05
SMILES: COc1ccc(Cl)c(-c2c(Cl)n(C(C)(C)C)c3ncnc(N)c23)c1 (single isomer, unassigned) [2e-(S), 7-(tert-butyl)-6-chloro-5-(2-chloro-5-methoxyphenyl)-7H-pyrrolo[2,3-d]pyrimidin-4-amine]

Reference: patent US10934300B2, “Atropisomerism for enhanced kinase inhibitor selectivity” (San Diego State University Foundation, priority 2017, dated 2021)
